Measured values as given in patent publication EP2408450B1, “ALPHA-(N-SULFONAMIDO)ACETAMIDE COMPOUND AS AN INHIBITOR OF BETA AMYLOID PEPTIDE PRODUCTION” (Bristol-Myers Squibb Company, priority 2009, dated 2010).

Experiments:
[1] = tested on: CYP3A4 mRNA; assay: Induction of CYP3A4 mRNA in Fa2N-4 cells; settings: Fa2N-4 hepatocytes, 3 days
Method: [[2-fluoro-4-(1,2,4-oxadiazol-3-yl)phenyl]methyl]amino]-5,5,5-trifluoropentanamide to induce CYP3A4 mRNA was evaluated in vitro using the Fa2N-4 cell line. The Fa2N-4 cell is an immortalized human hepatocyte line that was created using the Simian virus 40 (SV40) T antigen as the immortalizing gene, while retaining basal expression and inducibility of several CYP isoforms, including CYP3A4. Fa2N-4 cells and MFE Support Media F were provided by XenoTech, LLC (Lenexa, Kansas).
Upon the receipt of the cells, the media were changed and the cells maintained overnight in a humidified, CO2-supplied incubator. After this adaptation period, the cells were examined under a light microscope and a determination was made as to whether the cells were morphologically normal and suitable for use. During the treatment period, the cells were visually inspected on a daily basis; cellular morphology, confluency, and signs of toxicity due to the test article were documented as necessary. […] Rifampicin (10 µM), a prototypical CYP3A4 inducer, was used as the positive control. Fa2N-4 cells were exposed to the test articles for a total of 3 days. The culture medium was replaced daily with fresh medium containing the test articles. After a total of ~72 hours of exposure, medium was aspirated and the cells washed once with warm phosphate buffered saline solution before adding the cell lysis buffer (Qiagen, Valencia, CA).

[2] = tested on: Aβ42; assay: Inhibition of Aβ42 formation in cultured H4 APP751 SWE cells; type: cell-based; settings: H4-8Sw cells, mean ± SD, n = 45
Method: (§2) Cells were maintained in log phase through twice weekly passage at a 1:20 dilution. […] Following incubation for 19 hours in 5% CO2 at 37°C, plates were briefly centrifuged (1000 rpm, 5 min). […] Antibody cocktails were freshly prepared by dilution into 40 mM Tris-HCl (pH 7.4) with 0.2% BSA and added to assay plates. […] Assay plates containing antibodies were sealed with aluminum foil and incubated overnight at 4°C. Signal was determined using a Viewlux counter (Perkin Elmer) and IC50 values determined using curve fitting in CurveMaster (Excel Fit based).

[3] = Metabolic stability in liver microsomes (dog); type: in vitro ADME
Method: (§1) Mouse, rat, dog, human, and cynomolgus monkey liver microsomes were obtained from BD Gentest (Woburn, MA). The lot numbers were 13 (mouse), 8 (rat), 8 (dog), 19 and 26 (human), and 3 (cynomolgus monkey). […] The reaction, conducted in triplicate, was initiated by the addition of NADPH followed by incubation at 37°C for 50 minutes. Aliquots of samples (0.25 mL) were taken at 0, 5, 10, 20, 30, 40 and 50 minutes and the reaction was quenched by the addition of 3 volumes of acetonitrile. […] The reaction, conducted in triplicate, was initiated by the addition of NADPH followed by incubation at 37 °C for 50 minutes. Aliquots of samples (0.25 mL) were taken at 0, 5, 10, 20, 30, 40 and 50 minutes and the reaction was quenched by the addition of 3 volumes of acetonitrile. […] The reaction, conducted in duplicate, was initiated by the addition of NADPH followed by incubation at 37°C for 40 minutes. Aliquots of samples (0.25 mL) were taken at 0, 5, 10, 15, 20, 30 and 40 minutes and the reaction was quenched by the addition of 3 volumes of acetonitrile. For all studies, samples were analyzed immediately by an LC/MS method.

[4] = Metabolic stability in liver microsomes (human); type: in vitro ADME
Method: as §1

[5] = target: T1, human pregnane-X receptor (Homo sapiens, UniProt O75469); assay: PXR transactivation assay (CYP3A-Luc reporter in HepG2 cells); type: cell-based; settings: hPXR transactivation assay
T1 construct: expressed in transfected cells; host or cells: HepG2 cells, transiently transfected with PXR-pcDNA3 and CYP3A-Luc
T1 sequence (O75469 1-434): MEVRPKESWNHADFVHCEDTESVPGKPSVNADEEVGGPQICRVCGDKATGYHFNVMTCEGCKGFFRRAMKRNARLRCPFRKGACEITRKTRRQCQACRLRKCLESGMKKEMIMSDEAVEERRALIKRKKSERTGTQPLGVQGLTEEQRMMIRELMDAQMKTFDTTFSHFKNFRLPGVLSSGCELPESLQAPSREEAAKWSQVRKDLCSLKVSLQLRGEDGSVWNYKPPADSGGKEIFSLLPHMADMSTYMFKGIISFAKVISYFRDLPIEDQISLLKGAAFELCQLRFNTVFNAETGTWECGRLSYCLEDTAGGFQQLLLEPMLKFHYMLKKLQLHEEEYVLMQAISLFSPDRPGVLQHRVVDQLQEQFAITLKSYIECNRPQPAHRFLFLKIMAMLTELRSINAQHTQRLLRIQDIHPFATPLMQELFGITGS
Source text: Pregnane X receptor (PXR) is a nuclear hormone receptor principally responsible for the induction of cytochrome P450 (CYP) 3A4, which plays a major role in metabolizing many clinically prescribed drugs. It is well known that the induction of CYP3A4 can cause either drug-drug interaction by increasing the metabolic clearance of co-administered CYP3A4 substrates (Bertilsson, G. et al., Proc. Nat. Acad. Sci. USA, 95:12208-12213 (1998); Lehmann, J.M. et al., J. Clin. Invest., 102:1016-1023 (1998)) or can cause loss of drug exposure due to autoinduction. Characterizing the induction potential of discovery or development drug candidates has become an important screen throughout the pharmaceutical industry. […]
Cells in each flask are washed with PBS and 4 mL of Trypsin-EDTA (0.25%) is added and incubated for one minute at room temperature. […] Cells are then counted and diluted in media to 3.0 x 10^5 cells/mL. […] After fifteen minutes, plates are read on a Viewlux (Perkin-Elmer) plate reader.
Rifampicin (10 µM), a well known agonist of PXR, is included in each plate as an internal standard and positive control. The data was then expressed as percent activation (%Act), where the total signal is the signal from the 10 µM rifampicin and the blank signal is that from the DMSO vehicle. %Act = (Compound signal-Blank signal)/(Toal signal-Blank signal) × 100% [formula] […]

[6] = tested on: Aβ40; assay: Inhibition of Aβ40 formation in cultured H4 APP751 SWE cells; type: cell-based; settings: H4-8Sw cells, mean ± SD, n = 50
Method: as §2

NC(=O)[C@@H](CCC(F)(F)F)N(Cc1ccc(-c2ncon2)cc1F)S(=O)(=O)c1ccc(Cl)cc1 [(2R)-2-[[(4-chlorophenyl)sulfonyl][[2-fluoro-4-(1,2,4-oxadiazol-3-yl)phenyl]methyl]amino]-5,5,5-trifluoropentanamide]
increase in CYP3A4 mRNA expression over the vehicle control ([1]; highest concentration tested (20 µM)): 2.6 fold
induction of CYP3A4 ([1]; lower concentrations (≤ 8.0 µM)): ≤ 2.0 fold
IC50 [2]: 0.27 ± 0.12 nM
rate of in vitro metabolism ([3]; dog microsomes, NADPH-fortified, 1 µM): 40 pmol/min/mg protein
predicted in vivo (serum) clearance ([3]; dog, scaled from liver microsome rate): ~14 mL/min/kg
rate of in vitro metabolism ([4]; human microsomes, NADPH-fortified, 1 µM): 32 pmol/min/mg protein
predicted in vivo (serum) clearance ([4]; human, scaled from liver microsome rate): ~8 mL/min/kg
EC20A (20% of the Rifampicin response at 10 µM) [5]: 6900 nM
EC60A (60% of the Rifampicin response at 10 µM) [5]: greater than 16.7 µM
IC50 [6]: 0.3 ± 0.15 nM
